Measured values published in BindingDB's records for doi:10.7270/Q2251GJ9 (The Scripps Research Institute Molecular Screening Center, 2007).

Molecular target: Sphingosine 1-phosphate receptor 1 (Homo sapiens, UniProt P21453)
Assay: S1P1 receptor agonists, dose response, cell-based, agonist mode, 60K MLSMR set (AID 468)
[1] = inactive by the depositor's call

Sphingosine 1-phosphate receptor 1, sequence (P21453 whole entry): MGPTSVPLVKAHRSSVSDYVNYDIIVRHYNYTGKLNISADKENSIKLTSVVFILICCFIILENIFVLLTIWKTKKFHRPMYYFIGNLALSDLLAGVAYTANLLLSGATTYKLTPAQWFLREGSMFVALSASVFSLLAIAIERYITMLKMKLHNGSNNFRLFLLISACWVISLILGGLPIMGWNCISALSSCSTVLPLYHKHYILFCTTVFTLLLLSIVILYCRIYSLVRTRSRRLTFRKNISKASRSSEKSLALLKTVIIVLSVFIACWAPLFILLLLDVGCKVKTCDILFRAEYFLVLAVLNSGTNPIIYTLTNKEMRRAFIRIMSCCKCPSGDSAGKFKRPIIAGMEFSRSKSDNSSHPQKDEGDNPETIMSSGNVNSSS

Row | Compound | EC50 [µM] | EC50 [1] [µM]
1 | CCc1ccc(S(=O)(=O)NCCc2csc(-c3ccccc3)n2)s1 [5-ethyl-N-[2-(2-phenyl-1,3-thiazol-4-yl)ethyl]thiophene-2-sulfonamide] | 8.69 | 
2 | COC(=O)c1c(C)n(-c2ccc(OC)cc2)c2ccc(O)cc12 [5-hydroxy-1-(4-methoxyphenyl)-2-methyl-3-indolecarboxylic acid methyl ester] | 6.29 | 
3 | O=C(Nc1ccc(Oc2ccccc2)cc1)c1cnc2n(c1=O)CCS2 [5-keto-N-(4-phenoxyphenyl)-2,3-dihydrothiazolo[3,2-a]pyrimidine-6-carboxamide] |  | 16.6
4 | Cc1ccc(C(=O)Nc2nc(COc3ccccc3)cs2)s1 [5-methyl-N-[4-(phenoxymethyl)-1,3-thiazol-2-yl]thiophene-2-carboxamide] |  | 12.1
5 | Cc1ccc(S(=O)(=O)Nc2cccc3ncccc23)s1 [5-methyl-N-quinolin-5-ylthiophene-2-sulfonamide] | 9.62 | 
6 | Cn1nc(C(C)(C)C)cc1C(=O)NCc1ccc(N2CCCC2=O)cc1 [5-tert-Butyl-2-methyl-2H-pyrazole-3-carboxylic acid 4-(2-oxo-pyrrolidin-1-yl)-benzylamide] | 3.86 | 
7 | O=S1(=O)Nc2c(ccc3cccnc23)-c2ccccc21 [5H-quinolino[8,7-c][1,2]benzothiazine 6,6-dioxide] | 3.95 | 
8 | COc1ccc(N2CCn3c2nc2c3c(=O)n(CCCc3ccccc3)c(=O)n2C)c(OC)c1 [6-(2,4-dimethoxyphenyl)-4-methyl-2-(3-phenylpropyl)-7,8-dihydropurin[7,8-a]imidazole-1,3-quinone] | 5.83 | 
9 | Clc1ccccc1C1=Nn2c(nnc2-c2ccncc2)SC1 [6-(2-chlorophenyl)-3-(4-pyridyl)-7H-[1,2,4]triazolo[3,4-b][1,3,4]thiadiazine] | 3.48 | 
10 | CCOC(=O)C1C(=O)C=C(c2ccc(OC)cc2)CC1c1ccco1 (stereo unspecified) [6-(2-furanyl)-4-(4-methoxyphenyl)-2-oxo-1-cyclohex-3-enecarboxylic acid ethyl ester] | 3.51 | 
11 | COc1ccc(-c2cn3c(C)c(C(=O)Nc4ccncc4)sc3n2)cc1 [6-(4-methoxyphenyl)-3-methyl-N-(4-pyridyl)imidazo[2,1-b]thiazole-2-carboxamide] | > 10 | 
12 | Cc1ccc(N2C(=O)c3cccc4c(N5CCN(C)CC5)ccc(c34)C2=O)c2cccnc12 [6-(4-methyl-1-piperazinyl)-2-(8-methyl-5-quinolinyl)-1H-benzo[de]isoquinoline-1,3(2H)-dione] | > 30 | 
13 | O=c1oc2cc(Br)ccc2n1CSC1=NCCS1 [6-Bromo-3-(4,5-dihydro-thiazol-2-ylsulfanylmethyl)-3H-benzooxazol-2-one] |  | 12.9
14 | Cc1[nH]nc2c1C1(C(=O)N(Cc3ccc(Cl)cc3)c3ccccc31)C(C#N)C(=N)O2 (stereo unspecified) [6-amino-1'-[(4-chlorophenyl)methyl]-3-methyl-2'-oxo-5-spiro[2H-pyrano[2,3-c]pyrazole-4,3'-indole]carbonitrile] | 58 | 
15 | CC(C)Cn1c(N)c(C(=O)CSc2ccc3c(c2)OCCO3)c(=O)n(C)c1=O [6-amino-5-[2-(2,3-dihydro-1,4-benzodioxin-6-ylsulfanyl)acetyl]-3-methyl-1-(2-methylpropyl)pyrimidine-2,4-dione] |  | 24
16 | COc1cccc(-c2nnc3sc(C4CCCCC4)nn23)c1 [6-cyclohexyl-3-(3-methoxyphenyl)-[1,2,4]triazolo[3,4-b][1,3,4]thiadiazole] |  | 17.4
17 | CCc1cc2c(N3CCN(c4ccccc4)CC3)ncnc2s1 [6-ethyl-4-(4-phenyl-1-piperazinyl)thieno[2,3-d]pyrimidine] | 6.61 | 
18 | COc1ccc2ncn(-c3ccccc3)c2c1 [6-methoxy-1-phenyl-1H-1,3-benzodiazole] |  | 16.1
19 | c1csc(CCNc2ncnc3sc4c(c23)CCC4)c1 [7,8-dihydro-6H-cyclopenta[4,5]thieno[1,2-c]pyrimidin-1-yl-[2-(2-thienyl)ethyl]amine] | 1.24 | 
20 | Cc1cc(N2CCN(C(c3ccccc3)c3ccccc3)CC2)n2ncnc2n1 [7-(4-benzhydrylpiperazin-1-yl)-5-methyl-[1,2,4]triazolo[1,5-a]pyrimidine] |  | 14.5
21 | CCNc1nc2c(c(=O)n(C)c(=O)n2C)n1Cc1ccc(Cl)cc1 [7-(4-chlorobenzyl)-8-(ethylamino)-1,3-dimethyl-xanthine] |  | 12.9
22 | OCC12C=CC(O1)c1c2c(O)n(-c2ccccc2-c2ccccc2)c1O (stereo unspecified) [7-(hydroxymethyl)-2-(2-phenylphenyl)-4,7a-dihydro-3aH-octahydro-1H-4,7-epoxyisoindole-1,3-dione] | 5.47 | 
23 | CCCc1cc2c(=O)c(-c3ccccn3)coc2cc1OC [7-methoxy-6-propyl-3-(2-pyridinyl)-1-benzopyran-4-one] |  | 51.8
24 | CCCn1c(CN2CCN(c3cccc(Cl)c3)CC2)nc2c1c(=O)n(C)c(=O)n2C [8-[[4-(3-chlorophenyl)-1-piperazinyl]methyl]-1,3-dimethyl-7-propylpurine-2,6-dione] |  | 20.3
25 | CCOC(=O)c1cccc2c1-c1ccccc1C2N=O (stereo unspecified) [9-hydroximinofluorene-4-carboxylic acid ethyl ester] | 13 | 
26 | Cc1nnc(SC(=O)N2c3ccccc3Sc3ccccc32)s1 [10-phenothiazinecarbothioic acid S-(5-methyl-1,3,4-thiadiazol-2-yl) ester] | 3.57 | 

Row | Compound | EC50 [µM] | EC50 [1] [µM]
27 | CCCCn1ccnc1C(=O)c1cccc(S(=O)(=O)N2c3ccccc3CC2C)c1 (stereo unspecified) [(1-butyl-2-imidazolyl)-[3-[(2-methyl-2,3-dihydroindol-1-yl)sulfonyl]phenyl]methanone] | 9.34 | 
28 | CC1=CC(C)(C)Nc2ccc(OC(=O)c3cccnc3)cc21 [(2,2,4-trimethyl-1H-quinolin-6-yl) pyridine-3-carboxylate] |  | 11.4
29 | CC1CC(C)(C)Nc2ccc(OC(=O)c3ccco3)cc21 (stereo unspecified) [(2,2,4-trimethyl-3,4-dihydro-1H-quinolin-6-yl) furan-2-carboxylate] |  | 13.6
30 | COc1ccc(CNc2cc(C)nc3ncnn23)c(OC)c1 [(2,4-Dimethoxy-benzyl)-(5-methyl-[1,2,4]triazolo[1,5-a]pyrimidin-7-yl)-amine] |  | 16.3
31 | CCOc1ccccc1COC(=O)c1cccc(-n2cnnn2)c1 [(2-ethoxyphenyl)methyl 3-(1,2,3,4-tetrazol-1-yl)benzoate] |  | 22.9
32 | Cc1nc(NC(C)c2ccccc2)c2oc3ccccc3c2n1 (stereo unspecified) [(2-methylbenzofuro[3,2-d]pyrimidin-4-yl)-(1-phenylethyl)amine] | 6.97 | 
33 | C=CCN1/C(=N/c2cccnc2)SCC1(O)c1ccc(C)cc1 (stereo unspecified) [(2E)-3-allyl-4-(4-methylphenyl)-2-(pyridin-3-ylimino)-1,3-thiazolidin-4-ol] | 6.13 | 
34 | Cn1c(C(=O)N2CCCc3ccccc32)cc2sccc21 [(3,4-Dihydro-2H-quinolin-1-yl)-(4-methyl-4H-thieno[3,2-b]pyrrol-5-yl)-methanone] | 1.78 | 
35 | OC(c1cccc(OCc2ccccc2)c1)c1nnc(-c2ccccc2)o1 (stereo unspecified) [(3-benzoxyphenyl)-(5-phenyl-1,3,4-oxadiazol-2-yl)methanol] | 2.08 | 
36 | Nc1ccc(N2CCOCC2)c(Cl)c1 [(3-chloro-4-morpholino-phenyl)amine] | 1.18 | 
37 | O=C(Oc1cccc(C(=O)N2CCOCC2)c1)c1ccc(Br)cc1 [(3-morpholin-4-ylcarbonylphenyl) 4-bromanylbenzoate] | > 95 | 
38 | O=C(CSc1nnc(-c2cc3ccccc3cc2O)n1Cc1ccco1)c1ccc(F)cc1 [(3Z)-3-[3-[2-(4-fluorophenyl)-2-oxidanylidene-ethyl]sulfanyl-4-(furan-2-ylmethyl)-1H-1,2,4-triazol-5-ylidene]naphthalen-2-one] | 19.8 | 
39 | Cc1cc(C(=O)N2CCN(C(c3ccccc3)c3ccccc3)CC2)on1 [(4-benzhydrylpiperazin-1-yl)-(3-methyl-1,2-oxazol-5-yl)methanone] | 5.8 | 
40 | Cc1cc(C(=O)N2CCN(C(c3ccccc3)c3ccccc3)CC2)no1 [(4-benzhydrylpiperazin-1-yl)-(5-methyl-1,2-oxazol-3-yl)methanone] |  | 25.5
41 | CC(C)c1cc(C(=O)N2CCN(C(c3ccccc3)c3ccccc3)CC2)no1 [(4-benzhydrylpiperazin-1-yl)-(5-propan-2-yl-1,2-oxazol-3-yl)methanone] | > 10 | 
42 | CCCc1cc(C(=O)N2CCN(C(c3ccccc3)c3ccccc3)CC2)no1 [(4-benzhydrylpiperazin-1-yl)-(5-propyl-1,2-oxazol-3-yl)methanone] | 8.01 | 
43 | O=C(c1cc(-c2ccco2)on1)N1CCN(C(c2ccccc2)c2ccccc2)CC1 [(4-benzhydrylpiperazin-1-yl)-[5-(furan-2-yl)-1,2-oxazol-3-yl]methanone] | 6.75 | 
44 | CCCn1c(CNc2ccc(Br)cc2)nc2ccccc21 [(4-bromophenyl)-[(1-propylbenzimidazol-2-yl)methyl]amine] |  | 12.1
45 | COc1cccc2sc(Nc3nc(-c4ccccn4)cs3)nc12 [(4-methoxy-1,3-benzothiazol-2-yl)-[4-(2-pyridyl)thiazol-2-yl]amine] | 2.75 | 
46 | CCN(CC)C(=O)Oc1ccc2c(=O)c(-c3ccccc3)coc2c1 [(4-oxidanylidene-3-phenyl-chromen-7-yl) N,N-diethylcarbamate] |  | 37.2
47 | O=C(C1CCCN1S(=O)(=O)c1cccc2cccnc12)N1CCN(c2ccccc2)CC1 (stereo unspecified) [(4-phenyl-1-piperazinyl)-[1-(8-quinolinylsulfonyl)-2-pyrrolidinyl]methanone] | > 95 | 
48 | CCCc1ccc(Oc2c[nH]nc2-c2ccc(O)cc2O)cc1 [(4E)-3-hydroxy-4-[4-(4-propylphenoxy)-1,2-dihydropyrazol-3-ylidene]-1-cyclohexa-2,5-dienone] | 15.5 | 
49 | COc1ccc(C(=O)C2C(=O)C(=O)N(CC3CCCO3)C2c2cccc(OC)c2)cc1 (stereo unspecified) [(4Z)-4-[hydroxy-(4-methoxyphenyl)methylene]-5-(3-methoxyphenyl)-1-(tetrahydrofurfuryl)pyrrolidine-2,3-quinone] | > 95.1 | 
50 | COc1ccc(CCNc2c(C)c(C)nc3ncnn23)cc1 [(5,6-Dimethyl-[1,2,4]triazolo[1,5-a]pyrimidin-7-yl)-[2-(4-methoxy-phenyl)-ethyl]-amine] | 3.12 | 
51 | CS(=O)(=O)n1nc(OC(=O)c2cccc3ccccc23)cc1N [(5-amino-1-methylsulfonylpyrazol-3-yl) naphthalene-1-carboxylate] | 9.29 | 
